In patent US20230157286A1, “METHODS FOR INCREASING SECONDARY METABOLITE PRODUCTION IN CANNABIS” (priority 2021, published 2023):

Assays:
[1] = test system: cannabis clones of the gelato varietal; conditions: in vivo
[2] = test system: cannabis clones of the gelato varietal; test: Aroma compound analysis of cannabis flower by GCxGC-FID/TOF-MS; type: in vivo; conditions: compared with control and G1
Description: The major volatile aroma compounds of the flowers from the Cannabis plants were extracted using methanol as a solvent. 200 mg of flower was placed into a scintillation vial followed by mechanical grinding with a plastic disposable spatula. 2 mL of methanol was added to the flower and agitated for 15 minutes, followed by transferring 4 μL of the solution using a filtered syringe to a 20 mL headspace vial and crimped using an electric crimper.
GC×GC analysis was performed using the INSIGHT™ reverse fill flush flow modulator (SepSolve Analytical). This was coupled for data generation to an Agilent 7890B GC and BenchTOF Select Time of flight mass spectrometer (Markes International). Time-of-Flight Mass spectrometry (TOF-MS) was used to identify compounds. Quantification of compounds was done using a flame ionization detector (HD). Sample introduction was done using a Centri Sample Concentration Platform (Markes International). […]
Data was collected, integrated, and analyzed using the ChromSpace software platform (Sepsolve Analytical). Compounds were quantified from GC×GC—FID data with calibration curves using a 40-compound terpene standard (LGC Standards). […]
Three different samples of the plants shown in FIG. 4 were measured to obtain an average.
Three different samples of the plants shown were measured to for each group.

| Compound | THC and total cannabinoid concentration / cannabinoid production, in words [1] | volatile aroma compound production / aroma content, in words [2] |
| --- | --- | --- |
| O=S(=O)([O-])[O-].[K+].[K+] [K2SO4, potassium sulfate] | negatively affects | negatively affects |
| COc1ccc2[nH]cc(CCNC(C)=O)c2c1 [melatonin] | increased cannabinoid production relative to the control group |  |
